According to patent US6864086B2, “Nitric oxide-scavenging system for culturing oocytes, embryos, or other cells” (Board of Supervisors of Louisiana State University and …, priority 1998, dated 2005):
Several values for one entry are separate records, joined by “and”; a condition that tells them apart may be missing. Equal entries are not always repeated. Marks after values point to notes of the source that are not given here.

System: bovine embryos cultured in groups
Test: Example 6: Hb (1 μg/ml) in mBECM-C in presence or absence of cumulus-granulosa cells
Format: cell-based
Description: mBECM containing 10 μM β-mercaptoethanol was used to culture embryos, as described in J. Lim et al., “Roles of growth factors in the development of bovine embryos fertilized in vitro and cultured singly in a defined medium,” Reprod. Fertil. Dev., 8, 1199-1205 (1996). To culture individual 8-cell embryos we used mBECM supplemented with 1 ng/ml platelet derived growth factor type AB (PDGF; Upstate Biotechnology Inc., Lake Placid, N.Y.), 1 ng/ml transforming growth factor-β (TGF; R & D System, Minneapolis, Minn.), 50 ng/ml arachidonic acid (AA; Cayman Chemical Co., Ann Arbor, Mich.), 100 μM glutathione (GSH; Sigma Co.) and 1 mg/ml polyvinyl alcohol (PVA) (mBECM-S). mBECM to which 10% (v/v) FBS was added (mBECM-C) was used for co-culturing inseminated zygotes with CGs and for producing 8-cell embryos. Osmolarity of the medium was maintained within the range of 265-290 mOsm.
The bovine cumulus-oocyte complexes (COCs) used were collected in Madison, Wis. (BOMED, Inc.), and were shipped in 2-ml of maturation medium in a battery powered incubator via overnight express mail service. Oocytes matured during transit and arrived within 24 h after exposure to maturation medium, pre-equilibrated at 39° C. in 5% CO2 in air. At 22-24 h after exposure to the medium, the COCs were inseminated in vitro as described in J. Lim et al., “Intracytoplasmic glutathione concentration and the role of β-mercaptoethanol in preimplantation development of bovine embryos,” Theriogenology, 46, 429-439 (1996). At 18 h post-insemination, COCs were cultured in groups (30-35 embryos) in a 4-well multidish (Nunc, Roskilde, Denmark) containing 0.8-ml of mBECM-C. Embryos were dislodged from CGs at 36-48 h post-insemination.
In Example 1, embryos (83-85 per group) collected 18 h post-insemination were cultured in mBECM-C, to which 0, 0.008, or 0.04 mM SNP was added at 18 or 60 h post-insemination. In Example 2, 8-cell embryos (80 per group) were produced in a co-culture system containing CGs and mBECM-C, and then beginning at 60 h post-insemination were cultured singly in a defined culture medium (mBECM-S), to which 0, 0.0016, 0.008, or 0.04 mM of SNP (S-0501, Sigma Co.) was added. In Example 3 embryos, either uncleaved (n=99) or developed to the 2-cell stage (90), were collected 48 h post-insemination; and cleaved embryos, either developed to the morula stage (69) or degenerate (63) were collected 144 h post-insemination. NO metabolites were then measured in the embryos. In Example 4, three groups of 95 zygotes each were co-cultured with CGs in mBECM-C, to which 0, 1, or 10 μg/ml Hb (bovine, mainly methemoglobin, H-2500, Sigma Co.) was added. […] Inseminated oocytes (104 per group) were co-cultured with CGs in MBECM-C up to 192 h post-insemination; and Hb (1 μg/ml) was added to the medium at 18, 60, or 144 h post-insemination. In Example 6, inseminated oocytes (93 per group) were cultured in the presence or absence of CGs in mBECM-C to which either 0 or 1 μg/ml Hb was added. In Example 7, 8-cell embryos (100 per group), obtained after culture in mBECM-C supplemented with Hb (1 μg/ml), were cultured singly in mBECM-S, with or without Hb.
Oocytes or 8-cell embryos were randomly and equally allocated to each treatment group. In Examples 1, 2, and 4-7, oocytes or embryos that had developed to the 2-cell, 8-cell, >8-cell, 16-cell morula, and blastocyst stages were individually scored ‘1’ (developed) at 48, 60, 96, 120, 144 and 192 h post-insemination, respectively. […] Sums of the scores in each stage of development were evaluated by analysis of variance (ANOVA) using the general linear model (PROC-GLM) in the SAS program software. In Example 3, concentrations of NO metabolites in embryos were subjected to ANOVA. […] Differences were regarded as statistically significant where P values were less than 0.05.

Substance: hemoglobin [Hb]
- Percent of Embryos Developed to 2-cell (Hb 1 μg/ml + CG): 77%
- Percent of Embryos Developed to 8-cell (Hb 1 μg/ml + CG): 55%
- Percent of Embryos Developed to 16-cell (Hb 1 μg/ml + CG): 51% and 51^b %
- Percent of Embryos Developed to Blastocyst (Hb 1 μg/ml + CG): 33% and 33^b %
- Percent of Embryos Developed to Morula (Hb 1 μg/ml + CG): 40% and 40^b %
- Percent of Embryos Developed to 2-cell (Hb 1 μg/ml only, absence of CG): 73%
- Percent of Embryos Developed to 8-cell (Hb 1 μg/ml only, absence of CG): 52%
- Percent of Embryos Developed to 16-cell (Hb 1 μg/ml only, absence of CG): 34^a %
- Percent of Embryos Developed to Blastocyst (Hb 1 μg/ml only, absence of CG): 19^a %
- Percent of Embryos Developed to Morula (Hb 1 μg/ml only, absence of CG): 27^ab %
- promotion of pre-hatching development of embryos (Hb 1 μg/ml, cultured in the absence of CG): not seen to promote
